Columns and labels:
BRD4 (BDI_K57-E168) = target: T1, BRD4 (BDI_K57-E168) (Homo sapiens, UniProt O60885); test: TR-FRET bromodomain binding assay, BRD4 first bromodomain; conditions: His-tagged BD1, 100 nM Alexa647 probe; Ki calculated from IC50; dilution protocol A-G
T1 construct: BD1: amino acids K57-E168; made in house
Protocol: (§1) A time-resolved fluorescence resonance energy transfer (TR-FRET) assay was used to determine the affinities of compounds of the Examples listed in Table 1 for each bromodomain of BRD4. His-tagged first (BD1: amino acids K57-E168) and second (BD2: amino acids E352-E168) bromodomains of BRD4 were expressed and purified. An Alexa647-labeled BET-inhibitor was used as the fluorescent probe in the assay.
(§2) Compound dilution series were prepared in DMSO via an approximately 3-fold serial dilution from one of the following: • Assay method A: 2.5 mM-800 nM • Assay method B: 2.5 mM-797 nM • Assay method C: 1250 μM-21 nM • Assay method D: 500 μM-8.5 nM • Assay method E: 0.47 mM to 7.8 nM • Assay method F: 250 μM-4.2 nM • Assay method G: 0.047 mM to 0.78 nM or 5-fold serial dilution from Assay Method A or Assay Method B.
(§3) For Assay methods A, C, D, and F: Compounds were then diluted 6:100 in assay buffer (20 mM Sodium Phosphate, pH 6.0, 50 mM NaCl, 1 mM Ethylenediaminetetraacetic acid, 0.01% Triton X-100, 1 mM DL-Dithiothreitol) to yield 3× working solutions. Six microliters (μL) of the working solution was then transferred to white, low-volume assay plates (Costar #3673). A 1.5× assay mixture containing His-tagged bromodomain, Europium-conjugated anti-His antibody (Invitrogen PV5596) and the Alexa-647-conjugated probe molecule was also prepared. Twelve μL of this solution were added to the assay plate to reach a final volume of 18 μL.
(§4) For Assay methods B, E, and G: Compound dilutions were added directly into white, low-volume assay plates (Perkin Elmer Proxiplate 384 Plus#6008280) using a Labcyte Echo in conjunction with Labcyte Access and Thermo Multidrop CombinL robotics. Compounds were then suspended in eight microliters (μL) of assay buffer (20 mM Sodium Phosphate, pH 6.0, 50 mM NaCl, 1 mM Ethylenediaminetetraacetic acid disodium salt dihydrate, 0.01% Triton X-100, 1 mM DL-Dithiothreitol) containing His-tagged bromodomain, Europium-conjugated anti-His antibody (Invitrogen PV5596) and Alexa-647-conjugated probe.
(§5) The final concentration of 1× assay mixture for assay methods A, B, C, D, E, F, and G contains 2% DMSO, 8 nM His-tagged bromodomain, 1 nM Europium-conjugated anti-His-tag antibody and 100 nM or 30 nM probe (for BDI or BDII, respectively) and compound concentration in the range of: 50 μM-16 nM for method A, 49.02 μM-15.63 nM for method B, 25 μM-423 pM for method C, 10 μM-169 pM for method D, 9.19 μM-150 pM for method E, 5 μM-85 pM for method F, and 0.92 μM-15 pM for method G.
(§6) After a one-hour equilibration at room temperature, TR-FRET ratios were determined using an Envision multilabel plate reader (Ex 340, Em 495/520).
(§7) TR-FRET data were normalized to the means of 24 no-compound controls (“high”) and 8 controls containing 1 μM un-labeled probe (“low”). Percent inhibition was plotted as a function of compound concentration and the data were fit with the 4 parameter logistic equation to obtain IC50s Inhibition constants (Ki) were calculated from the IC50s, probe Kd and probe concentration. Typical Z′ values were between 0.65 and 0.75. The minimum significant ratio was determined to evaluate assay reproducibility (Eastwood et al., (2006) J Biomol Screen, 11: 253-261). The MSR was determined to be 2.03 for BDI and 1.93 for BDII, and a moving MSR (last six run MSR overtime) for both BDI and BDII was typically <3.

BRD4 (BDII_E352-M457) = target: T2, BRD4 (BDII_E352-M457) (Homo sapiens, UniProt O60885); test: TR-FRET bromodomain binding assay, BRD4 second bromodomain
T2 construct: made in house
Protocol: as §1, §2, §3, §4, §5, §6, §7

[1] = system: breast cancer cell line MX-1; test: MX-1 cell line proliferation assay (3-day, Cell Titer Glo); type: cell-based; conditions: Homo sapiens, MX1, MX-1 cells, 72 h, top concentration 3 μM, read-out: Cellular proliferation: EC50
Protocol: The impact of compounds of the Examples on cancer cell proliferation was determined using the breast cancer cell line MX-1 (ATCC) in a 3-day proliferation assay and the data are reported in Table 1. MX-1 cells were maintained in RPMI 1640 medium (Sigma) supplemented with 10% FBS at 37 C.° and an atmosphere of 5% CO2. For compound testing, MX-1 cells were plated in 96-well black bottom plates at a density of 5000 cells/well in 90 μL of culture media and incubated at 37° overnight to allow cell adhesion and spreading. Compound dilution series were prepared in DMSO via a 3-fold serial dilution from 3 mM to 0.1 μM. The DMSO dilution series were then diluted 1:100 in phosphate buffered saline, and 10 μL of the resulted solution were added to the appropriate wells of the MX-1 cell plate. The final compound concentrations in the wells were 3, 1, 0.3, 0.1, 0.03, 0.01, 0.003, 0.001, 0.0003 and 0.0001 μM.
Luminescence readings from the Cell Titer Glo assay were normalized to the DMSO treated cells and analyzed using the GraphPad Prism software with sigmoidal curve fitting to obtain EC50s. The minimum significant ratio (MSR) was determined to evaluate assay reproducibility (Eastwood et al., (2006) J Biomol Screen, 11: 253-261).

Ki (BRD4 (BDI_K57-E168)) [µM]	Ki (BRD4 (BDII_E352-M457)) [µM]	EC50 [1] [µM]	SMILES
0.0248	0.285	0.104	CCOC(=O)c1cc2c(-c3ccccc3Oc3ccc(F)cc3F)[nH]c(C)c2c(=O)[nH]1 [Example 21, ethyl 1-[2-(2,4-difluorophenoxy)phenyl]-3-methyl-4-oxo-4,5-dihydro-2H-pyrrolo[3,4-c]pyridine-6-carboxylate]
0.00625	0.0451	0.0608	Cc1[nH]c(-c2ccccc2Oc2ccc(F)cc2F)c2cc(C(N)=O)[nH]c(=O)c12 [Example 23, 1-[2-(2,4-difluorophenoxy)phenyl]-3-methyl-4-oxo-4,5-dihydro-2H-pyrrolo[3,4-c]pyridine-6-carboxamide]
0.00312	0.0923	0.163	Cc1[nH]c(-c2ccccc2Oc2ccccc2)c2cc(C(=O)NCCN3CCCC3)[nH]c(=O)c12 [Example 25, 3-methyl-4-oxo-1-(2-phenoxyphenyl)-N-[2-(pyrrolidin-1-yl)ethyl]-4,5-dihydro-2H-pyrrolo[3,4-c]pyridine-6-carboxamide]
0.0568	0.118	0.442	Cc1[nH]c(-c2ccccc2Oc2ccccc2)c2cc(C(=O)Nc3nccs3)[nH]c(=O)c12 [Example 26, 3-methyl-4-oxo-1-(2-phenoxyphenyl)-N-(thiazol-2-yl)-4,5-dihydro-2H-pyrrolo[3,4-c]pyridine-6-carboxamide]
0.00381	0.047	0.0989	Cc1[nH]c(-c2ccccc2Oc2ccccc2)c2cc(C(=O)NCCN3CCOCC3)[nH]c(=O)c12 [Example 27, 3-methyl-N-(2-morpholinoethyl)-4-oxo-1-(2-phenoxyphenyl)-4,5-dihydro-2H-pyrrolo[3,4-c]pyridine-6-carboxamide]
0.0427	0.0168	0.515	Cc1[nH]c(-c2ccccc2Oc2ccccc2)c2cc(C(=O)Nc3ccncc3)[nH]c(=O)c12 [Example 28, 3-methyl-4-oxo-1-(2-phenoxyphenyl)-N-(pyridin-4-yl)-4,5-dihydro-2H-pyrrolo[3,4-c]pyridine-6-carboxamide]
0.0926	0.0488	1.35	Cc1[nH]c(-c2ccccc2Oc2ccccc2)c2cc(C(=O)N3CCC(O)CC3)[nH]c(=O)c12 [Example 30, 6-(4-hydroxypiperidine-1-carbonyl)-3-methyl-1-(2-phenoxyphenyl)-2H-pyrrolo[3,4-c]pyridin-4(5H)-one]
0.0876	0.155	0.182	Cc1[nH]c(-c2ccccc2Oc2ccccc2)c2cc(C(=O)NCc3ccco3)[nH]c(=O)c12 [Example 31, N-(furan-2-ylmethyl)-3-methyl-4-oxo-1-(2-phenoxyphenyl)-4,5-dihydro-2H-pyrrolo[3,4-c]pyridine-6-carboxamide]
0.0228	0.158	0.102	Cc1[nH]c(-c2cc(Cl)ccc2Oc2ccc(F)cc2F)c2cc(C(N)=O)[nH]c(=O)c12 [Example 32, 1-[5-chloro-2-(2,4-difluorophenoxy)phenyl]-3-methyl-4-oxo-4,5-dihydro-2H-pyrrolo[3,4-c]pyridine-6-carboxamide]
0.077	0.16	0.355	CNC(=O)c1cc2c(-c3cc(C(F)(F)F)ccc3Oc3ccc(F)cc3F)[nH]c(C)c2c(=O)[nH]1 [Example 34, 1-[2-(2,4-difluorophenoxy)-5-(trifluoromethyl)phenyl]-N,3-dimethyl-4-oxo-4,5-dihydro-2H-pyrrolo[3,4-c]pyridine-6-carboxamide]
0.00521	0.0485	0.0536	Cc1[nH]c(-c2ccccc2Oc2ccccc2)c2cc(C(=O)NC3CCN(C)CC3)[nH]c(=O)c12 [Example 35, 3-methyl-N-(1-methylpiperidin-4-yl)-4-oxo-1-(2-phenoxyphenyl)-4,5-dihydro-2H-pyrrolo[3,4-c]pyridine-6-carboxamide]
0.00883	0.0209	0.188	Cc1[nH]c(-c2ccccc2Oc2ccccc2)c2cc(C(=O)NCC3CCOC3)[nH]c(=O)c12 (stereo not drawn) [Example 36, 3-methyl-4-oxo-1-(2-phenoxyphenyl)-N-(tetrahydrofuran-3-ylmethyl)-4,5-dihydro-2H-pyrrolo[3,4-c]pyridine-6-carboxamide]
0.0101	0.0139	0.161	Cc1[nH]c(-c2ccccc2Oc2ccccc2)c2cc(C(=O)NC3CCOC3)[nH]c(=O)c12 (stereo not drawn) [Example 37, 3-methyl-4-oxo-1-(2-phenoxyphenyl)-N-(tetrahydrofuran-3-yl)-4,5-dihydro-2H-pyrrolo[3,4-c]pyridine-6-carboxamide]
0.0166	0.029	0.3	Cc1[nH]c(-c2ccccc2Oc2ccccc2)c2cc(C(=O)NC3CCOCC3)[nH]c(=O)c12 [Example 38, 3-methyl-4-oxo-1-(2-phenoxyphenyl)-N-(tetrahydro-2H-pyran-4-yl)-4,5-dihydro-2H-pyrrolo[3,4-c]pyridine-6-carboxamide]
0.0121	0.0518	0.222	CCOC(=O)c1cc2c(-c3cc(S(C)(=O)=O)ccc3Oc3ccc(F)cc3F)[nH]c(C)c2c(=O)[nH]1 [Example 39, ethyl 1-[2-(2,4-difluorophenoxy)-5-(methylsulfonyl)phenyl]-3-methyl-4-oxo-4,5-dihydro-2H-pyrrolo[3,4-c]pyridine-6-carboxylate]
0.0224	0.0569	> 3	Cc1[nH]c(-c2cc(S(C)(=O)=O)ccc2Oc2ccc(F)cc2F)c2cc(C(N)=O)[nH]c(=O)c12 [Example 42, 1-[2-(2,4-difluorophenoxy)-5-(methylsulfonyl)phenyl]-3-methyl-4-oxo-4,5-dihydro-2H-pyrrolo[3,4-c]pyridine-6-carboxamide]
0.0667	0.424	0.233	COCc1cc2c(-c3ccccc3Oc3ccccc3)[nH]c(C)c2c(=O)[nH]1 [Example 44, 6-(methoxymethyl)-3-methyl-1-(2-phenoxyphenyl)-2,5-dihydro-4H-pyrrolo[3,4-c]pyridin-4-one]
0.00505	0.0964	0.139	CCOC(=O)c1cc2c(-c3cc(F)ccc3OC3CCCCC3)[nH]c(C)c2c(=O)[nH]1 [Example 48, ethyl 1-[2-(cyclohexyloxy)-5-fluorophenyl]-3-methyl-4-oxo-4,5-dihydro-2H-pyrrolo[3,4-c]pyridine-6-carboxylate]

Reference: US9050346B2, “Bromodomain inhibitors” (AbbVie Inc., priority 2013, dated 2015)
